In patent US20250002455A1, “NEW N-PHENYLPYRROLAMIDE INHIBITORS OF DNA GYRASE AND TOPOISOMERASE IV WITH ANTIBACTERIAL ACTIVITY” (priority 2020, published 2025):
Converted amounts (≈) assume the structure as drawn. Like-named read-outs stand apart in the source and are kept apart here.

Tests used:
[1] = system: K. pneumoniae ATCC 10031; experiment: Microbroth dilution MIC (CLSI); assay type: cell-based; conditions: Klebsiella pneumoniae, ATCC10031; K. pneumoniae ATCC 10031; read-out: MIC
Procedure: (§1) The chemical entities described in the present invention were assessed for their antimicrobial activity using a microbroth dilution assay as recommended by the CLSI (Methods for Dilution Antimicrobial Susceptibility Tests for Bacteria That Grow Aerobically, and Methods for Antimicrobial Susceptibility Testing of Anaerobic Bacteria, Clinical and Laboratory Standards Institute, Document M07-A8, and M11-A8, Wayne, PA 19087, USA, 2012.). Compounds were dissolved by using 100% DMSO. Serial two-fold dilutions of each compound were made by using 100% DMSO as the diluent.
(§2) A library of Gram-negative and Gram-positive microbes and their drug- and multidrug-resistant variants were employed as test organisms. The MIC (minimum inhibitory concentration) was determined as the lowest concentration of an individual drug that lead to no visible growth.

[2] = system: S. aureus ATCC 29213; experiment: Microbroth dilution MIC (CLSI); assay type: cell-based; conditions: Staphylococcus aureus, ATCC29213; S. aureus ATCC 29213; read-out: MIC
Procedure: as §1, §2

[3] = system: E. faecalis ATCC 29212; experiment: Microbroth dilution MIC (CLSI); assay type: cell-based; conditions: Enterococcus faecalis, ATCC29212; E. faecalis ATCC 29212; read-out: MIC
Procedure: as §1, §2

[4] = system: E. spp. cloacae ATCC 13047; experiment: Microbroth dilution MIC (CLSI); assay type: cell-based; conditions: Enterobacter cloacae, ATCC13047; E. spp. cloacae ATCC 13047; read-out: MIC
Procedure: as §1, §2

[5] = system: S. aureus ATCC 43300 (MRSA); experiment: Microbroth dilution MIC (CLSI); assay type: cell-based; conditions: Staphylococcus aureus
Procedure: as §1, §2

[6] = system: E. faecium ATCC 700221; experiment: Microbroth dilution MIC (CLSI); assay type: cell-based; conditions: Enterococcus faecium, ATCC700221
Procedure: as §1, §2

[7] = system: A. baumannii ATCC 17978; experiment: Microbroth dilution MIC (CLSI); assay type: cell-based; conditions: Acinetobacter baumannii, ATCC17978; A. baumannii ATCC 17978; read-out: MIC
Procedure: as §1, §2

[8] = system: S. aureus ATCC 700699 (VISA); experiment: Microbroth dilution MIC (CLSI); assay type: cell-based; conditions: Staphylococcus aureus
Procedure: as §1, §2

[9] = system: P. aeruginosa ATCC 27853; experiment: Microbroth dilution MIC (CLSI); assay type: cell-based; conditions: Pseudomonas aeruginosa, ATCC27853; P. aeruginosa ATCC 27853; read-out: MIC
Procedure: as §1, §2

[10] = system: E. coli ATCC 25922; experiment: Microbroth dilution MIC (CLSI); assay type: cell-based; conditions: Escherichia coli, ATCC25922; E. coli ATCC 25922; read-out: MIC
Procedure: as §1, §2

[11] = target: T1, E. coli DNA gyrase (Escherichia coli, UniProt P0AES6); experiment: biochemical; conditions: E. coli DNA gyrase; read-out: IC50
T1 construct: purchased Inspiralis
Procedure: Inhibitory activities for compounds of the present invention were determined on E. coli and S. aureus DNA gyrase and topoisomerase IV in an assay from Inspiralis on streptavidin-coated 96-well microtiter plates from Thermo scientific Pierce. […] After washing off the unbound oligonucleotide, the enzyme test was performed. […] Reaction solutions were incubated at 37° C. for 30 min. After that, the TF buffer (50 mM NaOAc with pH 5.0, 50 mM NaCl and 50 mM MgCl2) was added to terminate the enzymatic reaction. After additional incubation for 30 min at rt, during which biotin-oligonucleotide-plasmid triplex was formed, the unbound plasmid was washed off using TF buffer and SybrGOLD in T10 buffer (10 mM Tris HCl with pH 8.0 and 1 mM EDTA) was added. […] GraphPad Prism 6.0 software was used to calculate the IC50 values. The result is given as the average value of three independent measurements. […] Chemoth.

[12] = target: T2, E. coli topoisomerase IV (Escherichia coli, UniProt P20083); experiment: biochemical; conditions: E. coli topo IV, read-out: RA (residual activity of the enzyme); for remaining activity at 1 µM: 1 μM compound; for remaining activity at 10 µM: 10 μM compound
T2 construct: purchased Inspiralis
T2 sequence (P0AFI2 whole entry): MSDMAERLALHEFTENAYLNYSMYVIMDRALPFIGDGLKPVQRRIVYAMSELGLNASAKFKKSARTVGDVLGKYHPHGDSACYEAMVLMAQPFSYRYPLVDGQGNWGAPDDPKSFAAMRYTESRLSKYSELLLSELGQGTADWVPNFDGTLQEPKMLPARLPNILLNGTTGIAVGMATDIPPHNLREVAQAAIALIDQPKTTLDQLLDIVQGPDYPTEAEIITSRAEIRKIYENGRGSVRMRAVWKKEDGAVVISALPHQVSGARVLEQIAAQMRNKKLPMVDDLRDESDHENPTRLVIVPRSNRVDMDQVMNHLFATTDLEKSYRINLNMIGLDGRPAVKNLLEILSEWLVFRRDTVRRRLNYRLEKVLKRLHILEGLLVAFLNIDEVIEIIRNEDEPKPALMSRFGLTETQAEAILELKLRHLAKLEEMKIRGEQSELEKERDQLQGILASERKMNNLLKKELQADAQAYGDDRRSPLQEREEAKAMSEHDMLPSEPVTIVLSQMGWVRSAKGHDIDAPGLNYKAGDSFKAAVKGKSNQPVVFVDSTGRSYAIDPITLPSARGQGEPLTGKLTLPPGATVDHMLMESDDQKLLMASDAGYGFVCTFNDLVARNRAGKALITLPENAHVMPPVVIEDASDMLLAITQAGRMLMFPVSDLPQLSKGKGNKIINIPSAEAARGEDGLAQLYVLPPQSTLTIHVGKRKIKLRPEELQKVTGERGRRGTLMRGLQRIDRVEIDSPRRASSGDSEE
T2 sequence (P20083 whole entry): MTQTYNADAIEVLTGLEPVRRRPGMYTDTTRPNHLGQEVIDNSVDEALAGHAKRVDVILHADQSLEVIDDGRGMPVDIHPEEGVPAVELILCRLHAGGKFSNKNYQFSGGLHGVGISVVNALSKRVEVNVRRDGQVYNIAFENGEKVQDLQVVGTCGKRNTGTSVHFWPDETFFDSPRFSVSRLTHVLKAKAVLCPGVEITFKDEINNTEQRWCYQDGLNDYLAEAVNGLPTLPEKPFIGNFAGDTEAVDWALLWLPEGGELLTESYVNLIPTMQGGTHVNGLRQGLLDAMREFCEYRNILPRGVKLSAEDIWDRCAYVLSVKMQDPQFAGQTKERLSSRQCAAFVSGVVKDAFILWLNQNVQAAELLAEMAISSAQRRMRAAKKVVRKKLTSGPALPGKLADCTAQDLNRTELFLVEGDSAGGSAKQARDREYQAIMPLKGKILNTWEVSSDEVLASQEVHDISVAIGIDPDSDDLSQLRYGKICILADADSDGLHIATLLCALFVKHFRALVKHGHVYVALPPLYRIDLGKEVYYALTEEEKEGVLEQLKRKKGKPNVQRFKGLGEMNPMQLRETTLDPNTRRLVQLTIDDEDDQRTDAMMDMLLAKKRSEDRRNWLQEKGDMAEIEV
Procedure: Inhibitory activities for compounds of the present invention were determined on E. coli and S. aureus DNA gyrase and topoisomerase IV in an assay from Inspiralis on streptavidin-coated 96-well microtiter plates from Thermo scientific Pierce. […] After washing off the unbound oligonucleotide, the enzyme test was performed. […] Reaction solutions were incubated at 37° C. for 30 min. After that, the TF buffer (50 mM NaOAc with pH 5.0, 50 mM NaCl and 50 mM MgCl2) was added to terminate the enzymatic reaction. After additional incubation for 30 min at rt, during which biotin-oligonucleotide-plasmid triplex was formed, the unbound plasmid was washed off using TF buffer and SybrGOLD in T10 buffer (10 mM Tris HCl with pH 8.0 and 1 mM EDTA) was added. […] Initial screening was done at 100 or 10 nM concentration of inhibitors against E. coli DNA gyrase or 1 μM or 100 nM concentration against S. aureus DNA gyrase and E. coli and S. aureus topo IV. […] GraphPad Prism 6.0 software was used to calculate the IC50 values. The result is given as the average value of three independent measurements. […] Chemoth.

[13] = S. aureus ATCC 43300 (MRSA), read-out: MIC
[14] = E. faecium ATCC 700221, read-out: MIC
[15] = S. aureus ATCC 700699 (VISA), read-out: MIC

SMILES | MIC [1] [µg/mL] | MIC [2] [µg/mL] | MIC [3] [µg/mL] | MIC [4] [µg/mL] | MIC [5] [µg/mL] | MIC [6] [µg/mL] | MIC [7] [µg/mL] | MIC [8] [µg/mL] | MIC [9] [µg/mL] | MIC [10] [µg/mL] | IC50 [11] [µM] | MIC [5, 13] [µg/mL] | MIC [6, 14] [µg/mL] | MIC [8, 15] [µg/mL] | remaining activity at 1 µM [12] [%] | remaining activity at 10 µM [12] [%]
Cc1[nH]c(C(=O)Nc2ccc(-c3noc(=O)[nH]3)cc2N2CCNCC2)c(Cl)c1Cl [Example 5, 4-(2-(3,4-Dichloro-5-methyl-1H-pyrrole-2-carboxamido)-5-(5-oxo-4,5-dihydro-1,2,4-oxadiazol-3-yl)phenyl)piperazin-1-ium chloride] | > 64 | > 64 | > 64 | > 64 | > 64 | > 64 | > 64 | > 64 | > 64 | > 64 | 0.00607 | – | – | – | – | –
Cc1[nH]c(C(=O)Nc2ccc(-c3noc(=O)[nH]3)cc2N2CCCC2)c(Cl)c1Cl [Example 6, 3,4-Dichloro-5-methyl-N-(4-(5-oxo-4,5-dihydro-1,2,4-oxadiazol-3-yl)-2-(pyrrolidin-1-yl)phenyl)-1H-pyrrole-2-carboxamide] | > 64 | > 64 | < 0.0312 | > 64 | – | – | > 64 | – | > 64 | > 64 | 0.0126 | 0.5 (≈ 1.18 µM) | 0.0625 (≈ 0.148 µM) | < 0.0313 | – | –
Cc1[nH]c(C(=O)Nc2ccc(-c3noc(=O)[nH]3)cc2N2CCN(c3ccccc3)CC2)c(Cl)c1Cl [Example 7, 3,4-Dichloro-5-methyl-N-(4-(5-oxo-4,5-dihydro-1,2,4-oxadiazol-3-yl)-2-(4-phenylpiperazin-1-yl)phenyl)-1H-pyrrole-2-carboxamide] | > 64 | 4 (≈ 7.79 µM) | 0.125 (≈ 0.243 µM) | > 64 | – | – | > 64 | – | > 64 | > 64 | 0.109 | 0.0625 (≈ 0.122 µM) | 4 (≈ 7.79 µM) | 2 (≈ 3.9 µM) | – | –
Cc1[nH]c(C(=O)Nc2ccc(C(=O)O)cc2NC2CCNCC2)c(Cl)c1Cl.Cl [Example 15, 4-((5-Carboxy-2-(3,4-dichloro-5-methyl-1H-pyrrole-2-carboxamido)phenyl)amino)piperidin-1-ium chloride] | > 64 | > 64 | > 64 | > 64 | – | – | > 64 | – | > 64 | > 64 | 0.532 | > 64 | > 64 | > 64 | – | –
Cc1[nH]c(C(=O)Nc2ccc(C(=O)O)cc2N2CCN(c3ccccc3)CC2)c(Cl)c1Cl [Example 16, 4-(3,4-Dichloro-5-methyl-1H-pyrrole-2-carboxamido)-3-(4-phenylpiperazin-1-yl)benzoic acid] | > 64 | > 64 | > 64 | > 64 | – | – | > 64 | – | > 64 | > 64 | 0.199 | > 64 | > 64 | > 64 | – | –
Cc1[nH]c(C(=O)Nc2ccc(-c3n[nH]c(=O)o3)cc2NC2CCNCC2)c(Cl)c1Cl.Cl [Example 19, 4-((2-(3,4-Dichloro-5-methyl-1H-pyrrole-2-carboxamido)-5-(5-oxo-4,5-dihydro-1,3,4-oxadiazol-2-yl)phenyl)amino)piperidin-1-ium chloride] | 2 | > 64 | > 64 | > 64 | – | – | > 64 | – | > 64 | > 64 | 0.0044 | > 64 | > 64 | > 64 | – | –
Cc1[nH]c(C(=O)Nc2ccc(-c3n[nH]c(=O)o3)cc2OCc2ccncc2)c(Cl)c1Cl [Example 30, 3,4-Dichloro-5-methyl-N-(4-(5-oxo-4,5-dihydro-1,3,4-oxadiazol-2-yl)-2-(pyridin-4-ylmethoxy)phenyl)-1H-pyrrole-2-carboxamide] | – | – | – | – | – | – | – | – | – | – | 0.0422 | – | – | – | – | –
Cc1[nH]c(C(=O)Nc2ccc(-c3n[nH]c(=O)o3)cc2OCc2cccs2)c(Cl)c1Cl [Example 33, 3,4-Dichloro-5-methyl-N-(4-(5-oxo-4,5-dihydro-1,3,4-oxadiazol-2-yl)-2-(thiophen-2-ylmethoxy)phenyl)-1H-pyrrole-2-carboxamide] | – | – | – | – | – | – | – | – | – | – | 3.74 | – | – | – | – | –
Cc1[nH]c(C(=O)Nc2ccc(-c3n[nH]c(=O)o3)cc2N2CCNCC2)c(Cl)c1Cl.Cl [Example 41, 4-(2-(3,4-Dichloro-5-methyl-1H-pyrrole-2-carboxamido)-5-(5-oxo-4,5-dihydro-1,3,4-oxadiazol-2-yl)phenyl)piperazin-1-ium chloride] | 0.25 | 2 | 0.5 | ≥ 64 | – | – | ≥ 64 | – | ≥ 64 | ≥ 64 | 0.0179 | 4 | – | – | 71 | 48
Cc1[nH]c(C(=O)Nc2ccc(-c3n[nH]c(=O)o3)cc2N2CCOCC2)c(Cl)c1Cl [Example 42, 3,4-Dichloro-5-methyl-N-(2-morpholino-4-(5-oxo-4,5-dihydro-1,3,4-oxadiazol-2-yl)phenyl)-1H-pyrrole-2-carboxamide] | ≥ 64 | 0.25 (≈ 0.57 µM) | 0.125 (≈ 0.285 µM) | ≥ 64 | – | – | ≥ 64 | – | ≥ 64 | ≥ 64 | 0.0822 | 0.25 (≈ 0.57 µM) | – | – | 66 | 54
Cc1[nH]c(C(=O)Nc2ccc(-c3n[nH]c(=O)o3)cc2N2CCOC(C)C2)c(Cl)c1Cl (stereo not drawn) [Example 43, 3,4-Dichloro-5-methyl-N-(2-(2-methylmorpholino)-4-(5-oxo-4,5-dihydro-1,3,4-oxadiazol-2-yl)phenyl)-1H-pyrrole-2-carboxamide] | ≥ 64 | ≥ 64 | 1 (≈ 2.21 µM) | ≥ 64 | – | – | ≥ 64 | – | ≥ 64 | ≥ 64 | 0.0535 | ≥ 64 | – | – | 103 | 102
Cc1[nH]c(C(=O)Nc2ccc(-c3n[nH]c(=O)o3)cc2N2CC(C)OC(C)C2)c(Cl)c1Cl (stereo not drawn) [Example 44, 3,4-dichloro-N-(2-(2,6-dimethylmorpholino)-4-(5-oxo-4,5-dihydro-1,3,4-oxadiazol-2-yl)phenyl)-5-methyl-1H-pyrrole-2-carboxamide] | – | – | – | – | – | – | – | – | – | – | 0.109 | – | – | – | 105 | 105
Cc1[nH]c(C(=O)Nc2ccc(C(=O)NS(C)(=O)=O)cc2N2CCOCC2)c(Cl)c1Cl [Example 45, 3,4-Dichloro-5-methyl-N-(4-((methylsulfonyl)carbamoyl)-2-morpholinophenyl)-1H-pyrrole-2-carboxamide] | – | – | – | – | – | – | – | – | – | – | 0.243 | – | – | – | – | –
